According to patent US6369096B1, “Benzyloxy prodigiosine compounds” (Pharmacia & Upjohn S.p.A., priority 1998, dated 2002):
Read-outs that look alike come from different tables or passages of the source.

How the values were obtained:
[1] = system: female C57 Bl/6 mice primed and challenged with sheep red blood cells (SRBC); assay: DTH (Delayed-Type Hypersensitivity) assay; type: in vivo; conditions: given daily for six days, dose reducing footpad thickness increase by 30% vs controls
Method: The immunosuppressive activity of the compounds of the invention was evaluated in vivo by DTH (Delayed-Type Hypersensitivity) assay. According to the test, sheep red blood cells (SRBC) (1×10^5 cells) suspended in 500 mcL saline, were injected i.v. into the tail vein of female C57 Bl/6 mice (8-9 week old). Five days later 1×10^8 SRBC suspended in 50 mcL saline were injected into the left hind footpad. The increase in footpad thickness was measured with a dial micrometer 24 h after challenge. The test compounds were given daily for six days at different doses starting on the day of priming. Activity was expressed as ED30 (dose able to reduce by 30% the thickness increase compared to controls).

[2] = In vivo bioavailability evaluation (pharmacokinetics and oral bioavailability); conditions: 10 mg/kg, male Lewis rat, iv 1 mg salt/kg, oral 10 mg salt/kg, read-out: F % (bioavailability)
Method: Aim of the study is to determine the pharmacokinetics and the oral bioavailability of the instant prodigiosine compounds in rats.
Species/strain/sex: rat/Lewis/male
No. formulations: 1 oral; 1 intravenous
No. animals/formulation: 3+2 controls (+an ulterior rat treated with the iv formulation); total 9
Dosages: iv: 1 mg salt/kg; oral: 10 mg salt/kg
Vehicles: iv: a solution at the conc. of 5 mg/ml in PEG 400/Tween 80 (6:1 v:v) was prepared, then diluted with dextrose at the final concentration of 0.5 mg/ml; oral: a solution at the concentration of 5 mg/ml in Cremophor ELP/EtOH abs (6.5:3.5 v:v) was prepared, then diluted with saline at the final concentration of 1 mg/ml
Experimental: Three cannulated rats/formulation were treated. One rat/formulation was only treated with the vehicle, as basal sample. The intravenous administration was given into the caudal vein as bolus; the oral administration by gastric gavage as solution. […] Plasma was immediately obtained by centrifugation (10000 rpm for 3 min) and stored in labelled tubes at −30° C. till analysis.
Analytical assay: the extraction of the compounds was performed by protein precipitation by adding 100 mcl of acetonitrile to 25 mcl of plasma. The concentrations of the compounds (as free bases) in plasma were determined by LC-MS method. Column: APEX CN RP 5 mc, 10×4 mm (Jones chromatography); mobil phase: 70% acetonitrile/30% 1 mM ammonium formate +0.01% triethylamine adjusted to pH 2.0 with formic acid; flow rate: 1 ml/min; injection volume: 10 mcL; oven temperature: 45° C.; MS detection by APCI using MRM positive ion; MRM transition: 330 m/z>239 m/z, retention time: 1.4 min; LLOQ: 5.03 ng/ml; ULOQ: 10060 ng/ml. Bioavailability is expressed in following Table 1 as F %. ClogP is a lypophylic index, related to octanol/water partition coefficient.

[3] = system: Th murine cells D10-G4.1 (ATCC TIB 224); assay: Inhibition of IL-2 proliferation induced activity (3H-TdR uptake); type: cell-based; conditions: for 3HTdR uptake: mean cpm from triplicate wells, 48 h
Method: The Th murine cells D10-G4.1 (ATCC TIB 224) are IL-2 dependent for their growth. They are cultured in complete RPMI 1640 medium enriched with rhIL-2 (6 ng/ml) and ConA (6 ng/ml). For testing the inhibitory effects of the compounds of the invention on IL-2 activity, D 10 cells are washed twice with complete medium, resuspended at 10^5 cells/ml in the same medium and triplicately distributed (10^4 cells/well) in flat bottomed 96 well plates. […] and […] at different concentrations are simultaneously added to the cells. The cultures are then incubated at 37° C. in a humidified 5% CO2 incubator for 48 h, the last 18 h in the presence of 0.2 µCi of ^3H-TdR. Uptake of 3H-TdR in the cells (cpm) is taken as a measure of cell proliferation.

SMILES	DTH ED30 iv [1] [mg/kg]	DTH ED30 os [1] [mg/kg]	bioavailability ([2]; in vivo) [%]	bioavailability ([2]; plasma) [%]	% inhibition vs vehicle ([3]; 1 ng/ml) [%]	3HTdR uptake ([3]; 1 ng/ml) [cpm]	% inhibition vs vehicle ([3]; 3 ng/ml) [%]	3HTdR uptake ([3]; 3 ng/ml) [cpm]	% inhibition vs vehicle ([3]; 10 ng/ml) [%]	3HTdR uptake ([3]; 10 ng/ml) [cpm]	% inhibition vs vehicle ([3]; 30 ng/ml) [%]	3HTdR uptake ([3]; 30 ng/ml) [cpm]
CCCCCCCCCCCC1=NC(=Cc2[nH]c(-c3ccc[nH]3)cc2OCc2ccccc2)C=C1.Cl [PNU 156804, 4-benzyloxy-5-[(5-undecyl-2H-pyrrol-2-ylidene)methyl]-2,2′-bi-1H-pyrrole, hydrochloride, reference compound]	0.44	18.7	7									
CC1=NC(=Cc2[nH]c(-c3ccc[nH]3)cc2OCc2ccccc2)C=C1.Cl [PNU 168727, 4-benzyloxy-5-[(5-methyl-2H-pyrrol-2-ylidene)methyl]-2,2′-bi-1H-pyrrole, hydrochloride]	1.7	5.3		35	5	58245	11	54594	87	8100	100	52
CCCCCC1=NC(=Cc2[nH]c(-c3ccc[nH]3)cc2OCc2ccccc2)C=C1.Cl [PNU 169417, 4-benzyloxy-5-[(5-pentyl-2H-pyrrol-2-ylidene)methyl]-2,2′-bi-1H-pyrrole, hydrochloride]	1.1	4.4		18								
